According to patent US20220324912A1, “THERAPEUTIC PEPTIDES” (COHBAR, INC., priority 2019, published 2022):
Residues, ends and D or L forms follow the SMILES beside them.

How the values were obtained:
3T3-L1 mouse adipocytes = assay: Free Fatty Acid Levels in 3T3-L1 Mouse Adipocytes (Example 12, 10 μM); type: cell-based; conditions: peptides 10 μM, 20-22 hours then 3 hours with isoproterenol 1 nM, 3T3-L1 mouse adipocytes
Experimental: The effect of the peptides on fatty acid metabolism can be assessed using an assay of free fatty acid levels in cultured cells such as mouse adipocytes. Peptides were initially prepared as 10 mM stock in DMSO, diluted to 1 mM in H2O, and used at a final concentration of 10 μM (0.1% DMSO). […] After 20-22 hours, 1 nM isoproterenol was added to all wells except untreated controls and test peptides were replenished. Insulin at 100 nM was added to control wells. […] Free fatty acid concentrations in the media were determined using a Free Fatty Acid Assay kit (Zen-Bio) according to the manufacturer's instructions using a Cytation 3 plate reader at 540 nm (BioTek, Winooski, Vt.). Absorbance values were corrected for untreated background and expressed relative to isoproterenol treated cells. Treatment with isoproterenol (1 nM) alone was used as the free fatty acid level stimulatory control. The relative standard deviation of the isoproterenol control was <10%. […] Free fatty acid levels for insulin (100 nM) treatment were <5% of the isoproterenol control value.

C2C12 cells [1] = assay: Cell Proliferation in C2C12 Cells (Cyquant DNA dye); type: cell-based, mouse; conditions: peptides 10 μM, 72 hours with readdition every 24 hours, relative to 0.1% DMSO control
Experimental: The effect of the peptides on cell proliferation was assessed using a DNA dye binding assay in cultured cells such as mouse myoblast cells. Peptides were initially prepared as 10 mM stock in DMSO, diluted to 1 mM in H2O, and added at a final concentration of 10 μM (0.1% DMSO). Lovastatin was used as a growth arrest control at final concentration of […]. […] C2C12 cells were grown in DMEM supplemented with 20% FBS with 100 IU/ml penicillin and 100 μg/ml streptomycin. […] C2C12 cells were seeded at 800 cells per well on 96-well plates. […] Cell proliferation was determined using Cyquant Direct Nucleic Acid Stain (Thermo Fisher Scientific, Waltham, Mass.) according to the manufacturer's instructions. Fluorescence for each sample well on the plate was measured using a Cytation 3 plate reader at Ex/Em=495/535 nm (BioTek, Winooski, Vt.). Activity was calculated relative to 0.1% DMSO untreated control. The relative standard deviation for the lovastatin control was <27%. The cell proliferation for the lovastatin control was <25% of the value for untreated control.

C2C12 cells [2] = assay: Cellular ROS Levels Induced by TBHP in C2C12 Cells (DCFDA); type: cell-based, mouse; conditions: peptides 10 μM, 18-20 hours, then TBHP 100 μM 1 hour, relative to TBHP control
Experimental: The protective or synergistic effect of the peptides on cellular levels of reactive oxygen species (ROS) induced by oxidative stress can be assessed using an assay of ROS in cultured cells such as mouse myoblasts exposed to a suitable oxidative stress. Peptides were initially prepared as 10 mM stock in DMSO, diluted to 1 mM in H2O, and added at a final concentration of 10 μM (0.1% DMSO). […] TBHP was used at final concentration of 100 μM. Sulforaphane at final concentration of 10 µM was used as a protective control against TBHP induced ROS production. […] C2C12 cells were grown in DMEM supplemented with 20% FBS with 100 IU/ml penicillin and 100 μg/ml streptomycin. […] C2C12 cells were seeded at 7,500 cells per well on 96-well plates. […] After 18-20 hours of incubation the cells were loaded with DCFDA for 45 min. TBHP at 100 μM was then added to the appropriate wells for 1 hour. ROS activity was determined using a DCFDA Cellular ROS Detection Assay kit (Abcam, Cambridge, Mass.) according to the manufacturer's instructions. Fluorescence in each sample well on the plate was measured using a Cytation 3 plate reader at Ex/Em=485/535 nm (BioTek, Winooski, Vt.). Activity was calculated relative to TBHP control. The relative standard deviation of the sulforaphane control was <20%. The ROS level produced by the sulforaphane control in the presence of TBHP was 52% of the TBHP control.

DIO mice = assay: Metabolic parameters in DIO mice, twice daily intraperitoneal, 10 days (Example 16); type: in vivo, mouse; conditions: 5 mg/kg, male DIO mice
Experimental: Male C57BL/6 mice were maintained on a high fat diet for 18 weeks to develop diet induced obesity. Animals were randomized to treatment groups based on blood glucose levels and body weight. The peptides of the invention were administered to groups of male DIO mice twice daily by intraperitoneal injection at a dose of 5 mg/kg/dose for 10 days (N=8 animals per treatment group). An additional group of male DIO mice (n=8) received vehicle (water) alone administered twice daily by intraperitoneal injection. Body weight, blood glucose levels and food intake were monitored. Body mass distribution (fat vs lean) was determined by quantitative whole body NMR prior to dosing and at the end of dosing.

[3] = system: Caspase 3/7 in MDA-MB-231 cells; assay: Caspase 3/7 Activity in MDA-MB-231 Cells (Caspase-Glo 3/7); type: cell-based, human; conditions: for Caspase 3/7 activity, Percent of Control Activity: peptides 10 μM, 18 hours, relative to DMSO control
Experimental: The effect of the peptides on cell death/survival can be assessed using a caspase-3 assay. Peptides were dissolved with DMSO at 10 mM stock. […] Staurosporine (Selleckchem) was dissolved with DMSO at 1 mM stock. Caspase-Glo 3/7 Assay Reagent was purchased from Promega (Madison, Wis.). MDA-MB-231 human breast cancer cell line was purchased from American Type Culture Collection (Manassas, Va.). MDA-MB-231 cells were grown in DMEM Medium supplemented with 10% FBS. 100 μg/ml penicillin and 100 μg/ml streptomycin were added to the culture medium. Cultures were maintained at 37° C. in a humidified atmosphere of 5% CO2 and 95% air. MDA-MB-231 cells were incubated with test peptides in duplicate at 10 μM at 37° C. in a humidified atmosphere of 5% CO2 and 95% air for 18 hours. 25 μl of Caspase-Glo 3/7 Assay Reagent was added to each well and incubated at 37° C., 5% CO2 for 1 hour. Luminescence for each sample well on the plate was measured by Envision 2104 Multilabel Reader (PerkinElmer, Santa Clara, Calif.). Activity was calculated relative to DMSO control.

MCF-7 cells = conditions: human, 72 hours, 10 μM
Experimental: Peptides and reference compound staurosporine (Selleckchem) were dissolved with DMSO at 10 mM stock. CellTiter 96® AQueous One Solution Reagent (MTS assay reagent) was purchased from Promega (Madison, Wis.). MCF-7 human breast cancer cell line was purchased from American Type Culture Collection (Manassas, Va.). MCF-7 cells were grown in EMEM Medium supplemented with 10% FBS and 0.01 mg/ml human recombinant insulin. 100 μg/ml penicillin and 100 μg/ml streptomycin were added to the culture medium. Cells were incubated with test peptides at 10 μM at 37° C. in a humidified atmosphere of 5% CO2 and 95% air for 72 hours. 5 μl of CellTiter 96® AQueous One Solution Reagent (MTS assay reagent) was added to each well and incubated at 37° C., 5% CO2 for 5 hours. Absorbance at 492 nm was recorded by Envision 2104 Multilabel Reader. Treatment with DMSO alone was used as the cell viability activity control.

3T3-L1 adipocytes = assay: Free Fatty Acid Levels in 3T3-L1 Adipocytes (Example 4, 25 μM); type: cell-based, mouse; conditions: peptides 25 μM, 20-22 hours then 3 hours with isoproterenol 1 nM, 3T3-L1 adipocytes
Experimental: Following 12-15 days' differentiation, test peptides were added to a final concentration of 25 μM and incubated for 20-22 hours in Adipocyte Maintenance Medium. After 20-22 hours, isoproterenol (1 nM) was added to all wells except untreated controls and test peptides were replenished. Cells were incubated for a further 3 hours in Assay Buffer (Zen-Bio). Free fatty acid concentrations in the media were determined using a Free Fatty Acid Assay Kit (Zen-Bio) according to the manufacturer's instructions using a plate reader (540 nm). Absorbance values were corrected for untreated background and expressed relative to isoproterenol treated cells. Treatment with isoproterenol (1 nM) alone was used as the free fatty acid level stimulatory control. The relative standard deviation of the isoproterenol control was <10%. […] Free fatty acid levels for insulin (100 nM) treatment were <5% of the isoproterenol control value.

MDA-MB-231 cells = assay: Cell viability, MTS Assay in MDA-MB-231 Cells; type: cell-based; conditions: human, 72 hours
Experimental: Test compounds and reference compound staurosporine (Selleckchem) were all dissolved with DMSO at 10 mM stock. […] Activity was calculated relative to DMSO control. […] Cell viability was 3% of the DMSO control value for Staurosporine (10 uM).

[4] = Stability in Mouse Plasma; type: in vitro ADME; conditions: pooled mouse plasma, 37° C., peptides 100 DM
Experimental: Peptides (100 DM) were incubated in pooled mouse plasma at 37° C. and samples were removed and immediately analyzed for the concentration of intact peptide by LC/MS/MS over the course of 3 hours. The percent of peptide remaining in plasma at each time point was calculated relative to the initial peak area (Table 9).

With 14 (MRLPGPAILTNPVLGWVWV) [compound 14] the “Free fatty acid levels, Percent of Isoproterenol Control Activity” value (3T3-L1 mouse adipocytes) was 80.8%, the “Cell proliferation, Percent of Control” value (C2C12 cells [1]) was 93.2% and the “Cellular ROS levels induced by TBHP, Percent of Control” value (C2C12 cells [2]) was 106.0%. For the same molecule, the “Difference from Vehicle Control: Decrease from Baseline in Blood Glucose” value (DIO mice) was -6.12 mg/dL, the “Difference from Vehicle Control: Decrease from Baseline in Body Weight” value (DIO mice) was −2.48% and the “Difference from Vehicle Control: Decrease from Baseline in Fat Mass” value (DIO mice) was -0.93 g.
For `CC[C@H](C)[C@H](NC(=O)[C@H](C)NC(=O)[C@H](CCCNC(=N)N)NC(=O)[C@H](C)NC(=O)[C@@H](NC(=O)[C@H](CCCNC(=N)N)NC(=O)[C@H](CCCNC(=N)N)NC(=O)[C@@H](NC(=O)[C@H](C)NC(=O)[C@H](CC(C)C)NC(=O)[C@@H](N)CCSC)C(C)C)[C@@H](C)O)C(=O)NCC(=O)O` [compound 2] (H-MLAVRRTARAIG-OH; N-terminus and C-terminus assumed), the “Caspase 3/7 activity, Percent of Control Activity” value [3] was 71%, the “MTS cell viability, Percent of Control Activity” value (“MTS cell viability, Percent” below) (MCF-7 cells) was 39% and the “Free fatty acid levels, Percent of Control Value (percent isoproterenol control)” value (3T3-L1 adipocytes) was 76%. For the same molecule, the “MTS cell viability, Percent” value (MDA-MB-231 cells) was 78%.
For `CC[C@H](C)[C@H](NC(=O)[C@H](C)NC(=O)[C@H](CO)NC(=O)CNC(=O)[C@@H]1CCCN1C(=O)[C@H](CC(C)C)NC(=O)[C@H](CCCNC(=N)N)NC(=O)[C@@H](N)CCSC)C(=O)N[C@@H](CC(C)C)C(=O)N[C@H](C(=O)N[C@@H](CC(N)=O)C(=O)N1CCC[C@H]1C(=O)N[C@H](C(=O)N[C@@H](CC(C)C)C(=O)NCC(=O)N[C@@H](Cc1c[nH]c2ccccc12)C(=O)N[C@H](C(=O)N[C@@H](Cc1c[nH]c2ccccc12)C(=O)N[C@H](C(=O)O)C(C)C)C(C)C)C(C)C)[C@@H](C)O` [compound 7] (H-MRLPGSAILTNPVLGWVWV-OH), the “MTS cell viability, Percent” value (MCF-7 cells) was 64%, the “MTS cell viability, Percent” value (MDA-MB-231 cells) was 88% and the “% Remaining at 0 min” value ([4]; 0 min) was 100%. It also gave a remaining at 0.25 h, 100 DM ([4]; 15 min) of 70.9%, a remaining at 0.5 h, 100 DM ([4]; 30 min) of 68.2% and a remaining at 1 h, 100 DM ([4]; 60 min) of 52.6%. For the same molecule, the remaining at 2 h, 100 DM ([4]; 120 min) was 31.6% and the remaining at 3 h, 100 DM ([4]; 180 min) was 18.1%.
In the case of `CSCC[C@H](N)C(=O)N[C@H](C(=O)N[C@@H](Cc1ccccc1)C(=O)N[C@@H](CCC(N)=O)C(=O)N[C@@H](CCCCN)C(=O)N[C@H](C(=O)N[C@@H](Cc1c[nH]cn1)C(=O)N[C@@H](CC(N)=O)C(=O)N[C@@H](CC(C)C)C(=O)N[C@@H](CC(N)=O)C(=O)N[C@@H](CCC(N)=O)C(=O)N[C@@H](Cc1c[nH]cn1)C(=O)N[C@@H](CC(N)=O)C(=O)N[C@@H](Cc1c[nH]cn1)C(=O)N1CCC[C@H]1C(=O)N[C@@H](CCC(N)=O)C(=O)N1CCC[C@H]1C(=O)N[C@@H](CC(N)=O)C(=O)N[C@@H](Cc1ccc(O)cc1)C(=O)O)[C@@H](C)O)[C@@H](C)O` [compound 20] (H-MTFQKTHNLNQHNHPQPNY-OH; N-terminus and C-terminus assumed), the “Caspase 3/7 activity, Percent of Control Activity” value [3] is reported as 58%, the “MTS cell viability, Percent” value (MCF-7 cells) is reported as 63% and the “Free fatty acid levels, Percent of Control Value (percent isoproterenol control)” value (3T3-L1 adipocytes) is reported as 71%. The “MTS cell viability, Percent” value (MDA-MB-231 cells) was 85%.
With `CN[C@@H]1C[C@H]2O[C@@](C)([C@@H]1OC)n1c3ccccc3c3c4c(c5c6ccccc6n2c5c31)C(=O)NC4` [staurosporine, reference compound] the “Caspase activity, % of background-corrected DMSO control value” ([3]; staurosporine 0.05 nM) was 130%.
